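Results reflect a 48-hour exposure of cells in 96-well plates to compound at five concentrations. GI50 is the concentration that inhibits growth by half. TGI: concentration producing complete growth inhibition.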
How the values were obtained:
Assay in all cases: DTP human tumour cell line panel, 48 h
[1] = system: NCI/ADR-RES ovarian
[2] = system: UACC-62 melanoma
[3] = system: ACHN renal
[4] = system: SN12C renal
[5] = system: U251 CNS
[6] = system: SF-295 CNS
[7] = system: HS 578T breast
[8] = system: NCI-H226 lung
[9] = system: RXF 393 renal
[10] = system: SK-MEL-5 melanoma
[11] = system: RPMI-8226 leukemia
[12] = system: MOLT-4 leukemia
[13] = system: CAKI-1 renal
[14] = system: MCF7 breast
[15] = system: NCI-H460 lung
[16] = system: NCI-H23 lung
[17] = system: EKVX NSCLC
[18] = system: HOP-62 NSCLC
[19] = system: SK-MEL-2 melanoma
[20] = system: MDA-MB-231 breast
[21] = system: SNB-19 CNS
[22] = system: 786-0 renal
[23] = system: T-47D breast
[24] = system: PC-3 prostate
[25] = system: HL-60(TB) leukemia
[26] = system: OVCAR-5 ovarian
[27] = system: IGROV1 ovarian
[28] = system: MALME-3M melanoma
[29] = system: HOP-92 NSCLC
[30] = system: CCRF-CEM leukemia
[31] = system: TK-10 renal
[32] = system: SR leukemia
[33] = system: SK-OV-3 ovarian
[34] = system: HCT-116 colon
[35] = system: OVCAR-8 ovarian
[36] = system: MDA-MB-435
[37] = system: UACC-257 melanoma
[38] = system: SF-539 CNS
[39] = system: SK-MEL-28 melanoma
[40] = system: OVCAR-4 ovarian
[41] = system: A498 renal
[42] = system: UO-31 renal
[43] = system: HCT-15 colon
[44] = system: COLO 205 colon
[45] = system: K-562 leukemia
[46] = system: SNB-75 CNS
[47] = system: M14 melanoma
[48] = system: NCI-H522 lung
[49] = system: HT29 colon
[50] = system: A549 NSCLC
[51] = system: SW-620 colon
[52] = system: SF-268 CNS
[53] = system: BT-549 breast
[54] = system: LOX IMVI melanoma
[55] = system: DU-145 prostate
[56] = system: KM12 colon
[57] = system: HCC-2998 colon

For `Oc1ccc(CSc2nnc(-c3cnccn3)o2)c2cccnc12`, the GI50 [1] was 1890 nM, the TGI [1] was greater than 100000 nM and the GI50 [2] was 517 nM. It also gave a TGI [2] of 15700 nM, a GI50 [3] of 432 nM and a TGI [3] greater than 100000 nM. For the same molecule, the GI50 [4] was 317 nM, the TGI [4] was greater than 100000 nM and the GI50 [5] was 370 nM. The TGI [5] was greater than 100000 nM, the GI50 [6] was 364 nM and the TGI [6] was greater than 100000 nM. For the same molecule, the GI50 [7] was 340 nM, the TGI [7] was greater than 100000 nM and the GI50 [8] was 1750 nM. The TGI [8] was greater than 29600 nM, the GI50 [9] was 522 nM and the TGI [9] was greater than 41000 nM. For the same molecule, the GI50 [10] was 229 nM, the TGI [10] was 530 nM and the GI50 [11] was 395 nM. For the same molecule, the TGI [11] was greater than 100000 nM, the GI50 [12] was 488 nM and the TGI [12] was greater than 100000 nM. It also gave a GI50 [13] of 605 nM, a TGI [13] greater than 100000 nM and a GI50 [14] of 305 nM. It also gave a GI50 [15] of 336 nM, a TGI [15] greater than 100000 nM and a GI50 [16] of 371 nM. The TGI [16] was greater than 100000 nM, the GI50 [17] was 505 nM and the TGI [17] was greater than 100000 nM. The GI50 [18] was 449 nM, the TGI [18] was greater than 100000 nM and the GI50 [19] was 314 nM. For the same molecule, the TGI [19] was 998 nM, the GI50 [20] was 840 nM and the TGI [20] was greater than 100000 nM. The GI50 [21] was 390 nM, the TGI [21] was greater than 100000 nM and the GI50 [22] was 590 nM. It also gave a TGI [22] greater than 100000 nM, a GI50 [23] of 379 nM and a TGI [23] greater than 100000 nM. It also gave a GI50 [24] of 335 nM, a TGI [24] greater than 100000 nM and a GI50 [25] of 410 nM. The GI50 [26] was 1420 nM, the TGI [26] was greater than 100000 nM and the GI50 [27] was 812 nM. For the same molecule, the TGI [27] was greater than 100000 nM, the GI50 [28] was 283 nM and the TGI [28] was 2190 nM. For the same molecule, the GI50 [29] was 202 nM, the TGI [29] was 592 nM and the GI50 [30] was 536 nM. For the same molecule, the TGI [30] was greater than 100000 nM, the GI50 [31] was 3070 nM and the TGI [31] was greater than 100000 nM. The GI50 [32] was 395 nM, the TGI [32] was greater than 100000 nM and the GI50 [33] was 700 nM. The TGI [33] was greater than 23700 nM, the GI50 [34] was 334 nM and the TGI [34] was greater than 100000 nM. It also gave a GI50 [35] of 381 nM, a TGI [35] greater than 100000 nM and a GI50 [36] of 359 nM. It also gave a TGI [36] greater than 100000 nM, a GI50 [37] of 407 nM and a TGI [37] of 4720 nM. For the same molecule, the GI50 [38] was 419 nM, the TGI [38] was greater than 100000 nM and the GI50 [39] was 711 nM. The TGI [39] was greater than 100000 nM, the GI50 [40] was 643 nM and the TGI [40] was greater than 100000 nM. For the same molecule, the GI50 [41] was 2220 nM, the TGI [41] was 7220 nM and the GI50 [42] was 426 nM. The TGI [42] was greater than 32200 nM, the GI50 [43] was 385 nM and the TGI [43] was greater than 100000 nM. It also gave a GI50 [44] of 3220 nM, a TGI [44] of 11100 nM and a GI50 [45] of 363 nM. The TGI [45] was greater than 100000 nM, the GI50 [46] was 332 nM and the TGI [46] was greater than 100000 nM. It also gave a GI50 [47] of 475 nM, a TGI [47] greater than 85200 nM and a GI50 [48] of 415 nM. The TGI [48] was greater than 100000 nM, the GI50 [49] was 4000 nM and the TGI [49] was greater than 100000 nM. It also gave a GI50 [50] of 404 nM, a TGI [50] greater than 100000 nM and a GI50 [51] of 445 nM. For the same molecule, the TGI [51] was greater than 100000 nM, the GI50 [52] was 453 nM and the TGI [52] was greater than 100000 nM. The GI50 [53] was 283 nM, the TGI [53] was 8560 nM and the GI50 [54] was 383 nM. For the same molecule, the TGI [54] was greater than 100000 nM, the GI50 [55] was 472 nM and the TGI [55] was greater than 100000 nM. It also gave a GI50 [56] of 638 nM, a TGI [56] greater than 100000 nM and a GI50 [57] of 697 nM. It also gave a TGI [57] greater than 100000 nM.

— PubChem BioAssay (NCI)
